Structures can show the parent of a compound that is named as a salt.
Key:
H. pylori MurI = biological target: T1, H. pylori MurI (Helicobacter pylori, UniProt Q9ZLT0); test: Glutamate racemase (MurI) activity assay, coupled to L-glutamate dehydrogenase (LGDH), fluorescence readout; assay type: biochemical; settings: 1000 nM H. pylori MurI, 40 μM D-glutamate, room temperature, read-out: LGDH I50
T1 sequence (Q9ZLT0 1-255): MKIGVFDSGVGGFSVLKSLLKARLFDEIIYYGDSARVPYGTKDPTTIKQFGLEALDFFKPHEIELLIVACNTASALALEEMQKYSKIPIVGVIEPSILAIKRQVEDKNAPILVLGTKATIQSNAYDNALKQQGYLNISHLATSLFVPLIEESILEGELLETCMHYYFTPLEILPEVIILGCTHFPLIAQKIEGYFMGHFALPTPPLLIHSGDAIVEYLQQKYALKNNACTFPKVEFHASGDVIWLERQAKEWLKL
Method: Glutamate Racemase Activity Assay:
Glutamate racemase (MurI) activity was assayed by measuring the conversion of glutamate from D to L enantiomer. This reaction was coupled to the reduction of NAD^+ to NADH by L-glutamate dehydrogenase (LGDH). LGDH from bovine liver was obtained as a lyophilized powder (Sigma #G-7882) and dissolved in 10 mM Tris (Sigma #T-6791), pH 7.5, buffer containing 0.1 mM EDTA (Fisher #BP118-500) and 50% glycerol (Sigma #G-9012). The assay mixture consisted of 100 mM Tris-HCl, pH 8.0, 10 mM β-NAD (Sigma #N-7004), 5 mM DTT (Sigma #D-5545), 0.03% PEG (mw 8000, Sigma #P-5413), 0.03 mg/mL BSA (Pierce #23210), 15 U/mL LGDH, D-glutamate (Fluka #49460), and purified MurI. The following MurI concentrations were used: 1000 nM H. pylori MurI, 0.7 nM E. faecalis MurI, or 0.4 nM E. coli MurI. In the case of E. coli MurI 14 μM UDP-MurNAc-Ala was also added. The final concentration of D-glutamate added for H. pylori MurI was 40 μM, and the other orthologs used 1 mM D-glutamate. The assay was performed in 96-well black microtiter plates (Greiner #XN2-9511) with a final assay volume of 100 μL. Compounds were prepared (x) […]
[…] as 20 mM stock solutions in dimethyl sulphoxide (DMSO, Sigma #D-5879) and serial dilutions were prepared from these solutions using DMSO, 2 μL of which were added to the wells. Activity at room temperature was measured by monitoring the increase in fluorescence using a TECAN Ultra platereader with 340 nm excitation and 465 nm emission filters. The compounds provided have measured IC50 of less then 400 μM

| SMILES | IC50 (H. pylori MurI) [µM] | melting point [°C] |
| --- | --- | --- |
| Cn1c(=O)c2c(-c3ccncc3)n(Cc3cccc4ccccc34)nc2n(CS(=O)(=O)C(F)(F)F)c1=O [Example 126, 5-methyl-2-(1-naphthylmethyl)-3-(4-pyridinyl)-7-{[(trifluoromethyl)sulfonyl]methyl}-2H-pyrazolo[3,4-d]pyrimidine-4,6(5H,7H)-dione] | 18 | – |
| Cn1c(=O)c2c(-c3ccncc3)n(Cc3cccc4ccccc34)nc2n(C[S+]([O-])c2ccccc2)c1=O (stereo not shown) [Example 128, 5-methyl-2-(1-naphthylmethyl)-7-[(phenylsulfinyl)methyl]-3-pyridin-4-yl-2H-pyrazolo[3,4-d]pyrimidine-4,6(5H,7H)-dione] | – | 130 to 135 |
| CC(C)Cn1c(=O)n(C)c(=O)c2c(-c3ccccc3F)n(Cc3csc4ccccc34)nc21 [Example 131, 2-(1-benzothiophen-3-ylmethyl)-3-(2-fluorophenyl)-7-isobutyl-5-methyl-2H-pyrazolo[3,4-d]pyrimidine-4,6(5H,7H)-dione] | – | 55 to 57 |
| CC(C)Cn1c(=O)n(C)c(=O)c2c(-c3cccc(-c4nnn[nH]4)c3)n(Cc3cccc4ccccc34)nc21 [Example 129, 7-isobutyl-5-methyl-2-(1-naphthylmethyl)-3-[3-(1H-1,2,3,4-tetraazol-5-yl)phenyl]-2H-pyrazolo[3,4-d]pyrimidine-4,6(5H,7H)-dione] | 1.6 | 251 to 254 |
| Cn1c(=O)c2c(-c3ccncc3)n(Cc3cccc4ccccc34)nc2n(C[S+](C)[O-])c1=O (racemic) [Example 127, (±)5-methyl-7-[(methylsulfinyl)methyl]-2-(1-naphthylmethyl)-3-pyridin-4-yl-2H-pyrazolo[3,4-d]pyrimidine-4,6(5H,7H)-dione] | 26 | 107 to 109 |
| Cn1c(=O)c2c(-c3ccncc3)n(Cc3cccc4ccccc34)nc2n(C[S+]([O-])C(F)(F)F)c1=O (racemic) [Example 125, (±)5-methyl-2-(1-naphthylmethyl)-3-(4-pyridinyl)-7-{[(trifluoromethyl)sulfinyl]methyl}-2H-pyrazolo[3,4-d]pyrimidine-4,6(5H,7H)-dione,7H)-dione] | 45.7 | – |

Now from value to compound:

| IC50 (H. pylori MurI) [µM] | melting point [°C] | SMILES |
| --- | --- | --- |
| – | 75 to 77 | CCC(C#N)n1c(=O)n(C)c(=O)c2c(-c3ccncc3)n(Cc3cccc4ccccc34)nc21 (racemic) (as salt: trifluoroacetate) [Example 130, ±2-[5-methyl-2-(1-naphthylmethyl)-4,6-dioxo-3-(4-pyridinyl-2,4,5,6-tetrahydro-7H-pyrazolo[3,4-d]pyrimidin-7-yl]butanenitrile] |
| 9.1 | – | CCC(C#N)n1c(=O)n(C)c(=O)c2c(-c3ccncc3)n(Cc3cccc4ccccc34)nc21 (racemic) [Example 130, ±2-[5-methyl-2-(1-naphthylmethyl)-4,6-dioxo-3-(4-pyridinyl-2,4,5,6-tetrahydro-7H-pyrazolo[3,4-d]pyrimidin-7-yl]butanenitrile] |

— patent US7285558B2, “Pyrazolo[3,4-d]pyrimidines inhibiting H. pylori infections” (AstraZeneca AB, priority 2001, dated 2007)
